This passage reports Ki results from ChEMBL document CHEMBL1135903 (J Med Chem, 2002).

As usually defined, the Ki is a dissociation constant, usually derived from enzyme kinetics or from competition with a known ligand. A low value points to a stronger hold on the target.

In one experiment the target is T1, Carbonic anhydrase 4 (Bos taurus, UniProt Q95323).
T1 sequence (Q95323 whole entry): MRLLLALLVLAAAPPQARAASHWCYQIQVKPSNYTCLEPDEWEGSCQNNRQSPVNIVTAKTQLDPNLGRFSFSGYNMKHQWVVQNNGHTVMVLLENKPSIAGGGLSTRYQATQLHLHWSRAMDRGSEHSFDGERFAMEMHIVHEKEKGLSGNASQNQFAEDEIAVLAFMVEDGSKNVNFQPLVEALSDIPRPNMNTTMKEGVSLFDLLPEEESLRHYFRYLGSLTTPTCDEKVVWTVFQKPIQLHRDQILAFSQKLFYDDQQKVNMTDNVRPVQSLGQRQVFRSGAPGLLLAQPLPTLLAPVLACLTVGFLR

For a further experiment, the target named is Carbonic anhydrase 1 (Homo sapiens, UniProt P00915).

Values joined by “and” are separate entries in the source; they are usually repeats but may differ in a detail not shown here. Equal values may be shown once.

Carbonic anhydrase 1, sequence (P00915 whole entry): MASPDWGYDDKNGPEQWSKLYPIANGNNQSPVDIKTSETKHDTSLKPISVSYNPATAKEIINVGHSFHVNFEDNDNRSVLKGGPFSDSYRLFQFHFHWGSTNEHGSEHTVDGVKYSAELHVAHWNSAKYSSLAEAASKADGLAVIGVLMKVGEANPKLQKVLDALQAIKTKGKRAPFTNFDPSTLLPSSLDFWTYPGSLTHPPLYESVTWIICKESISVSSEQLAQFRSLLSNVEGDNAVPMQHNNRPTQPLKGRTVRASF
Description for Carbonic anhydrase 1: Inhibitory activity against Human carbonic anhydrase I
Description for Carbonic anhydrase 4: Inhibitory activity against bovine carbonic anhydrase IV

Regarding `NS(=O)(=O)c1ccc(NC(=O)CN(CCN(CC(=O)O)CC(=O)O)CC(=O)O)c(Cl)c1`, the inhibition constant Ki on Carbonic anhydrase 4 came to 69 nM; on Carbonic anhydrase 1 it was 700 nM.
As to `NS(=O)(=O)c1ccc(COC(=O)CN(CCN(CC(=O)O)c2ccccc2O)c2ccccc2O)cc1`, the inhibition constant (Ki) on Carbonic anhydrase 4 was 320 nM; at Carbonic anhydrase 1, 945 nM.
As to `NS(=O)(=O)c1ccc(CCNC(=O)CN(CCN(CC(=O)O)c2ccccc2O)c2ccccc2O)cc1`, the inhibitory constant (Ki) turned out to be 215 nM on Carbonic anhydrase 4 and 1050 nM on Carbonic anhydrase 1.
The corresponding values for `NS(=O)(=O)c1ccc(NC(=O)CN(CC(=O)O)CC(=O)O)cc1` are 450 nM and 20600 nM.
In the case of `NS(=O)(=O)c1nc2ccc(OCCOC(=O)CNCCNCC(=O)O)cc2s1`, the Ki is 9 nM at Carbonic anhydrase 4 and 43 nM on Carbonic anhydrase 1.
For `NS(=O)(=O)c1ccc(NC(=O)CNCC(=O)O)c(Br)c1`, the Ki is 57 nM on Carbonic anhydrase 4 and 610 nM at Carbonic anhydrase 1.
On the same counts, the results for `NS(=O)(=O)c1ccc(NC(=O)CNCCNCC(=O)O)c(I)c1` are 115 nM and 430 nM.
On the same counts, the results for `NS(=O)(=O)c1ccc(NC(=O)CN(CCN(CC(=O)O)c2ccccc2O)c2ccccc2O)c(I)c1` are 90 nM and 220 nM.
For the compound `NS(=O)(=O)c1cccc(NC(=O)CNCCNCC(=O)O)c1`, the inhibition constant (Ki) was 1010 nM at Carbonic anhydrase 4 and 13000 nM at Carbonic anhydrase 1.
Consider `NS(=O)(=O)c1cc(S(N)(=O)=O)c(NC(=O)CN(CC(=O)O)CC(=O)O)c(Cl)c1Cl`, for which the Ki at Carbonic anhydrase 4 was 100 nM; at Carbonic anhydrase 1 it was 345 nM.
The corresponding values for `NS(=O)(=O)c1ccc(CCOC(=O)CN(CCOCCOCCN(CC(=O)O)CC(=O)O)CC(=O)O)cc1` are 155 nM and 430 nM.
On the same counts, the results for `NS(=O)(=O)c1nc2ccc(OCCOC(=O)CN(CCN(CC(=O)O)c3ccccc3O)c3ccccc3O)cc2s1` are 7 nM and 41 nM.
The corresponding values for `NS(=O)(=O)c1ccc(NC(=O)CN(CCN(CC(=O)O)CC(=O)Nc2ccc(S(N)(=O)=O)cc2Br)CC(=O)O)c(Br)c1` are 34 nM and 105 nM.
`NS(=O)(=O)c1ccc(NC(=O)CN(CCN(CC(=O)O)CC(=O)O)CC(=O)O)c(I)c1`: the results for the inhibition constant Ki on Carbonic anhydrase 4 and on Carbonic anhydrase 1 were 78 nM and 123 nM, respectively.
The corresponding values for `NS(=O)(=O)c1nc2ccc(OC(=O)CNCC(=O)O)cc2s1` are 14 nM and 50 nM.
On the same counts, the results for `Cn1nc(S(N)(=O)=O)s/c1=N/C(=O)CNCCNCC(=O)O` are 76 nM and 275 nM.
Consider `NS(=O)(=O)c1cc(S(N)(=O)=O)c(NC(=O)CN(CCOCCOCCN(CC(=O)O)CC(=O)O)CC(=O)O)c(Cl)c1Cl`, for which the inhibition constant Ki on Carbonic anhydrase 4 was 35 nM; on Carbonic anhydrase 1, 50 nM.
Turning to `NS(=O)(=O)c1ccc(NNC(=O)CN(CCOCCOCCN(CC(=O)O)CC(=O)O)CC(=O)O)cc1`, the Ki at Carbonic anhydrase 4 amounted to 620 nM; on Carbonic anhydrase 1 it was 12500 nM.
On the same counts, the results for `NS(=O)(=O)c1ccc(COC(=O)CN(CCOCCOCCN(CC(=O)O)CC(=O)O)CC(=O)O)cc1` are 250 nM and 500 nM.
The corresponding values for `NS(=O)(=O)c1ccc(NNC(=O)CN(CCN(CC(=O)O)CC(=O)O)CC(=O)O)cc1` are 750 nM and 16000 nM.
In the case of `NS(=O)(=O)c1ccc(NC(=O)CN(CCN(CC(=O)O)c2ccccc2O)c2ccccc2O)c(F)c1`, the inhibition constant Ki turned out to be 79 nM at Carbonic anhydrase 4 and 450 nM at Carbonic anhydrase 1.
With `NS(=O)(=O)c1ccc(NC(=O)CN(CCN(CC(=O)O)CC(=O)Nc2ccc(S(N)(=O)=O)cc2Cl)CC(=O)O)c(Cl)c1`, the values for the Ki on Carbonic anhydrase 4 and at Carbonic anhydrase 1 were 50 nM and 225 nM, respectively.
In the case of `NS(=O)(=O)c1ccc(COC(=O)CN(CCN(CC(=O)O)CC(=O)O)CC(=O)O)cc1`, the Ki was 335 nM on Carbonic anhydrase 4 and 850 nM on Carbonic anhydrase 1.
The corresponding values for `Cn1nc(S(N)(=O)=O)s/c1=N/C(=O)CN(CCN(CCN(CC(=O)O)CC(=O)/N=c1/sc(S(N)(=O)=O)nn1C)CC(=O)O)CC(=O)O` are 9 nM and 54 nM.
The corresponding values for `NS(=O)(=O)c1ccc(NC(=O)CN(CCN(CC(=O)O)CC(=O)O)CC(=O)O)c(F)c1` are 40 nM and 360 nM.
For `NS(=O)(=O)c1cccc(NC(=O)CN(CC(=O)O)CC(=O)O)c1`, the results for the Ki at Carbonic anhydrase 4 and on Carbonic anhydrase 1 were 1520 nM and 23000 nM, respectively.
Consider `NS(=O)(=O)c1cc(S(N)(=O)=O)c(NC(=O)CN(CCN(CC(=O)O)CC(=O)O)CC(=O)O)cc1Cl`, for which the inhibition constant (Ki) was 105 nM at Carbonic anhydrase 4 and 210 nM on Carbonic anhydrase 1.
For the compound `NS(=O)(=O)c1ccc(CNC(=O)CNCCNCC(=O)O)cc1`, the Ki at Carbonic anhydrase 4 worked out at 245 nM; on Carbonic anhydrase 1, 1760 nM.
Turning to `NS(=O)(=O)c1cccc(NC(=O)CN(CCN(CC(=O)O)c2ccccc2O)c2ccccc2O)c1`, the Ki on Carbonic anhydrase 4 was determined as 860 nM; on Carbonic anhydrase 1, 10000 nM.
On the same counts, the results for `NS(=O)(=O)c1nnc(NC(=O)CNCC(=O)O)s1` are 265 nM and 415 nM.
In the case of `NS(=O)(=O)c1nnc(NC(=O)CCNC(=O)CN(CCOCCOCCN(CC(=O)O)CC(=O)O)CC(=O)O)s1`, the figures for the inhibition constant Ki at Carbonic anhydrase 4 and at Carbonic anhydrase 1 were 13 nM and 120 nM, respectively.
Take `NS(=O)(=O)c1ccc(CCNC(=O)CN(CCOCCOCCN(CC(=O)O)CC(=O)NCCc2ccc(S(N)(=O)=O)cc2)CC(=O)O)cc1`: the inhibition constant Ki on Carbonic anhydrase 4 turned out to be 20 nM; on Carbonic anhydrase 1, 160 nM.
On the same counts, the results for `NS(=O)(=O)c1ccc(CCOC(=O)CNCCNCC(=O)O)cc1` are 330 nM and 1000 nM.
`NS(=O)(=O)c1ccc(NC(=O)CN(CCOCCOCCN(CC(=O)O)CC(=O)O)CC(=O)O)cc1`: the inhibition constant (Ki) was 170 nM on Carbonic anhydrase 4 and 4000 nM at Carbonic anhydrase 1.
Consider `Cn1nc(S(N)(=O)=O)s/c1=N/C(=O)CNCC(=O)O`, for which the Ki at Carbonic anhydrase 4 worked out at 120 nM; on Carbonic anhydrase 1, 710 nM.
`NS(=O)(=O)c1cc(S(N)(=O)=O)c(NC(=O)CN(CCOCCOCCN(CC(=O)O)CC(=O)Nc2cc(Cl)c(S(N)(=O)=O)cc2S(N)(=O)=O)CC(=O)O)cc1Cl`: the results for the Ki at Carbonic anhydrase 4 and on Carbonic anhydrase 1 were 36 nM and 50 nM, respectively.
The corresponding values for `NS(=O)(=O)c1ccc(CCOC(=O)CN(CCN(CC(=O)O)CC(=O)O)CC(=O)O)cc1` are 310 nM and 640 nM.
`NS(=O)(=O)c1ccc(NC(=O)CN(CCN(CC(=O)O)CC(=O)O)CC(=O)O)c(Br)c1`: the results for the inhibitory constant (Ki) at Carbonic anhydrase 4 and on Carbonic anhydrase 1 were 50 nM and 130 nM, respectively.
The corresponding values for `NS(=O)(=O)c1ccc(NC(=O)CN(CCN(CC(=O)O)c2ccccc2O)c2ccccc2O)cc1` are 320 nM and 11500 nM.
The corresponding values for `NS(=O)(=O)c1ccc(NC(=O)CNCC(=O)O)c(I)c1` are 114 nM and 515 nM.
For the compound `NS(=O)(=O)c1ccccc1NC(=O)CN(CCN(CC(=O)O)c1ccccc1O)c1ccccc1O`, the values for the Ki at Carbonic anhydrase 4 and at Carbonic anhydrase 1 were 800 nM and 12500 nM, respectively.
The corresponding values for `Cn1nc(S(N)(=O)=O)s/c1=N/C(=O)CN(CCOCCOCCN(CC(=O)O)CC(=O)/N=c1/sc(S(N)(=O)=O)nn1C)CC(=O)O` are 5 nM and 36 nM.
The corresponding values for `NS(=O)(=O)c1ccccc1NC(=O)CNCC(=O)O` are 1240 nM and 27000 nM.
On the same counts, the results for `NS(=O)(=O)c1ccc(CNC(=O)CN(CCOCCOCCN(CC(=O)O)CC(=O)NCc2ccc(S(N)(=O)=O)cc2)CC(=O)O)cc1` are 39 nM and 350 nM.
Regarding `NS(=O)(=O)c1ccc(NC(=O)CN(CCN(CC(=O)O)CC(=O)Nc2ccc(S(N)(=O)=O)cc2I)CC(=O)O)c(I)c1`, the Ki is 45 nM on Carbonic anhydrase 4 and 89 nM on Carbonic anhydrase 1.
The corresponding values for `NS(=O)(=O)c1nnc(NC(=O)CCNC(=O)CNCCNCC(=O)O)s1` are 39 nM and 240 nM.
On the same counts, the results for `NS(=O)(=O)c1ccc(CCOC(=O)CN(CCN(CC(=O)O)c2ccccc2O)c2ccccc2O)cc1` are 300 nM and 760 nM.
With `NS(=O)(=O)c1ccc(CNC(=O)CN(CC(=O)O)CC(=O)O)cc1`, the Ki on Carbonic anhydrase 4 was 256 nM; at Carbonic anhydrase 1, 3500 nM.
On the same counts, the results for `NS(=O)(=O)c1cccc(NC(=O)CN(CCOCCOCCN(CC(=O)O)CC(=O)O)CC(=O)O)c1` are 500 nM and 7450 nM.
With `NS(=O)(=O)c1ccc(NC(=O)CN(CCN(CC(=O)O)c2ccccc2O)c2ccccc2O)c(Cl)c1`, the inhibition constant (Ki) at Carbonic anhydrase 4 worked out at 108 nM; on Carbonic anhydrase 1 it was 870 nM.
`NS(=O)(=O)c1ccc(CCNC(=O)CN(CC(=O)O)CC(=O)O)cc1`: the inhibition constant (Ki) at Carbonic anhydrase 4 is 240 nM; on Carbonic anhydrase 1, 3300 nM.
In the case of `NS(=O)(=O)c1nc2ccc(OCCOC(=O)CN(CCOCCOCCN(CC(=O)O)CC(=O)O)CC(=O)O)cc2s1`, the Ki at Carbonic anhydrase 4 is 6 nM; on Carbonic anhydrase 1, 30 nM.
Turning to `NS(=O)(=O)c1ccc(CCOC(=O)CN(CCN(CC(=O)O)CC(=O)OCCc2ccc(S(N)(=O)=O)cc2)CC(=O)O)cc1`, the Ki at Carbonic anhydrase 4 worked out at 165 nM; on Carbonic anhydrase 1, 450 nM.
On the same counts, the results for `NS(=O)(=O)c1ccc(COC(=O)CNCC(=O)O)cc1` are 350 nM and 1260 nM.
Turning to `NS(=O)(=O)c1nc2ccc(OC(=O)CN(CCN(CCN(CC(=O)O)CC(=O)Oc3ccc4nc(S(N)(=O)=O)sc4c3)CC(=O)O)CC(=O)O)cc2s1`, the inhibitory constant (Ki) at Carbonic anhydrase 4 was 4 nM and 5 nM; on Carbonic anhydrase 1, 16 nM.
`NS(=O)(=O)c1ccc(NC(=O)CNCC(=O)O)c(Cl)c1`: the inhibition constant (Ki) at Carbonic anhydrase 4 turned out to be 165 nM; at Carbonic anhydrase 1 it was 975 nM.
On the same counts, the results for `Cn1nc(S(N)(=O)=O)s/c1=N/C(=O)CN(CCN(CC(=O)O)c1ccccc1O)c1ccccc1O` are 57 nM and 250 nM.
On the same counts, the results for `NS(=O)(=O)c1ccc(NC(=O)CN(CCN(CC(=O)O)CC(=O)O)CC(=O)O)cc1` are 330 nM and 6300 nM.
Turning to `NS(=O)(=O)c1ccc(NC(=O)CN(CCN(CCN(CC(=O)O)CC(=O)Nc2ccc(S(N)(=O)=O)cc2Cl)CC(=O)O)CC(=O)O)c(Cl)c1`, the affinity on Carbonic anhydrase 4, expressed as Ki, was 27 nM.
